What was measured:
[1] = Comparative dissolution profiles of azithromycin polymorph Ik vs. dihydrate, USP Method 2; type: physicochemical; settings: for percent dissolved: pH 6 (37° C.), USP Method 2
Description: In order to compare the behavior in vitro of the fast dissolving azithromycin polymorph (Formula Ik) with the commercial azithromycin dihydrate product, dissolution profiles have been determined at pH 6.0 at 37° C. The comparative dissolution profiles were determined by USP Method 2, PharmaTest Dissolution Tester, PTW SII; the content of dissolved azithromycin was measured by HPLC.

[2] = Human pharmacokinetic study, plasma concentration after GI site-specific administration of aqueous suspension; settings: 500 mg aqueous suspension; for ΔIa/dihydrate, AUC / ΔIa/dihydrate, Cmax: Ia relative to dihydrate
Description: (§1) The test was an open, mono-centric, fasted human study. 6 human subjects were studied using a full cross-over experimental design experiment. […] This crossover experiment was repeated a total of three times by intubations of the test subjects: the first involved GI site-specific administration to the stomach, the second involved GI site-specific administration to the duodenum, and the third involved GI site-specific administration to the jejunum.
(§2) The kinetics parameters were determined model-independently and the parameters were determined directly from the measured concentrations.

[3] = Analysis of adverse events observed during human PK study; type: in vivo
[4] = Comparative dissolution profiles of azithromycin monohydrate Ia vs. dihydrate, USP Method 2; type: physicochemical; settings: pH 1.2, 3.0, 6.0 and 6.8, 37° C., 900 ml buffer, 100 rpm, FIGS. 1-4
Description: In order to compare the behavior in vitro of the fast dissolving azithromycin monohydrate (Formula Ia) with the commercial azithromycin dihydrate product, dissolution profiles have been determined at pH 1.2, pH 3.0, pH 6.0, and pH 6.8, at 37° C. The comparative dissolution profiles were determined in 900 ml buffer solution, at 100 rpm, by USP Method 2, PharmaTest Dissolution Tester, PTW SII; the content of dissolved azithromycin was measured by HPLC. The data thus obtained are plotted in FIGS. 1-4, respectively.

[5] = In vivo rat pharmacokinetic study, plasma and whole blood concentration time curves after p.o. administration; settings: rats, 50 mg/kg suspension; for ΔIa/dihydrate, Cmax / ΔIa/dihydrate, AUC(0-12): Ia relative to dihydrate; for ΔIa/dihydrate, AUC(0-12): monohydrate, 50 mg/kg
Description: 32 animals (Wistar Han rats, fasted) were studied using a cross-over experimental design experiment. A non-compartmental analysis was used to determine the concentrations of the respective materials in whole blood and plasma as a function of time.

clinical = settings: human, in vivo, 500 mg
Description: as §1, §2

[6] = site-specific administration to duodenum
[7] = site-specific administration to jejunum
[8] = site-specific administration to stomach

## CC[C@H]1OC(=O)[C@H](C)[C@@H](O[C@H]2C[C@@](C)(OC)[C@@H](O)[C@H](C)O2)[C@H](C)[C@@H](O[C@@H]2O[C@H](C)C[C@H](N(C)C)[C@H]2O)[C@](C)(O)C[C@@H](C)CN(C)[C@H](C)[C@@H](O)[C@]1(C)O [Pseudopolymorph Ik, 9-deoxo-9a-aza-9a-methyl-9a-homoerythromycin A Pseudopolymorph Ik]
[1]; 5 minutes
  percent dissolved: 99.8%
[1]; 10 minutes
  percent dissolved: 99.9%
[1]; 20 minutes
  percent dissolved: 97.1%
[1]; 45 minutes
  percent dissolved: 97.6%
[1]; pH 6.0, 37° C.
  dissolution profile compared to commercially available azithromycin dihydrate: dissolves faster

## CC[C@H]1OC(=O)[C@H](C)[C@@H](O[C@H]2C[C@@](C)(OC)[C@@H](O)[C@H](C)O2)[C@H](C)[C@@H](O[C@@H]2O[C@H](C)C[C@H](N(C)C)[C@H]2O)[C@](C)(O)C[C@@H](C)CN(C)[C@H](C)[C@@H](O)[C@]1(C)O.O [azithromycin monohydrate]
[2]; duodenum
  ΔIa/dihydrate, AUC: −13%
  ΔIa/dihydrate, Cmax: +10%
[2]; jejunum
  ΔIa/dihydrate, AUC: +98%
  ΔIa/dihydrate, Cmax: +60%
[2]; [6]
  AUC: 719 nghr/ml
  Cmax: 129 ng/mL
[2]; [7]
  AUC: 836 nghr/ml
  Cmax: 99 ng/mL
[2]; [8]
  AUC: 813 nghr/ml
  Cmax: 143 ng/mL
[2]; stomach
  ΔIa/dihydrate, AUC: +19%
  ΔIa/dihydrate, Cmax: +52%
[3]; human PK study, single dose administration of a comparable amount
  incidence of adverse effects compared to azithromycin dihydrate product: lower incidence of adverse effects
[4]
  dissolution profile compared to commercially available azithromycin dihydrate: dissolves faster
[5]; plasma
  AUC(0-12): 5148 nghr/ml
  Cmax: 1006 ng/mL
  ΔIa/dihydrate, Cmax: +37%
  ΔIa/dihydrate, AUC(0-12): +29%
[5]; plasma, listed as azithromycin monohydrate Ia
  ΔIa/dihydrate, AUC(0-12): ~29%
[5]; whole blood
  AUC(0-12): 21204 nghr/ml
  Cmax: 5061 ng/mL
  ΔIa/dihydrate, Cmax: +97%
  ΔIa/dihydrate, AUC(0-12): +27%
[5]; whole blood, listed as azithromycin monohydrate Ia
  ΔIa/dihydrate, AUC(0-12): approximately 27%

## CC[C@H]1OC(=O)[C@H](C)[C@@H](O[C@H]2C[C@@](C)(OC)[C@@H](O)[C@H](C)O2)[C@H](C)[C@@H](O[C@@H]2O[C@H](C)C[C@H](N(C)C)[C@H]2O)[C@](C)(O)C[C@@H](C)CN(C)[C@H](C)[C@@H](O)[C@]1(C)O [Azithromycin Dihydrate, 9-deoxo-9a-aza-9a-methyl-9a-homoerythromycin A dihydrate]
clinical
  Cmax: 94 ng/mL
[3]; human, in vivo
  adverse events with a possible causal relationship: 3 events
[1]; 5 minutes, listed as Commercial 9-deoxo-9a-aza-9a-methyl-9a-homoerythromycin A Dihydrate, dihydrate
  percent dissolved: 14.5%
[1]; 10 minutes, listed as Commercial 9-deoxo-9a-aza-9a-methyl-9a-homoerythromycin A Dihydrate, dihydrate
  percent dissolved: 27.3%
[1]; 20 minutes, listed as Commercial 9-deoxo-9a-aza-9a-methyl-9a-homoerythromycin A Dihydrate, dihydrate
  percent dissolved: 44.2%
[1]; 45 minutes, listed as Commercial 9-deoxo-9a-aza-9a-methyl-9a-homoerythromycin A Dihydrate, dihydrate
  percent dissolved: 69.1%

Reference: US7572773B2, “Single dose fast dissolving azithromycin” (Pliva Hrvatska D.O.O., priority 2003, dated 2009)
